These results are taken from PMC9410537, “Discovery of Ircinianin Lactones B and C—Two New Cyclic Sesterterpenes from the Marine Sponge Ircinia wistarii” (Marine Drugs, 2022).

Read-outs that look alike come from different tables or passages of the source.

For data set [1], the system named is L-6 cells (rat skeletal myoblasts). As to the kind of experiment: In vitro cytotoxicity assay with L-6 cells (resazurin). As to conditions: L6, 70 h, read-out: IC50 L6. It counts as cell-based. The protocol: In vitro cytotoxicity assay with L-6 cells. Assays were performed in 96-well microtiter plates, each well containing 100 μL of RPMI 1640 medium supplemented with 1% L-glutamine (200 mM) and 10% fetal bovine serum, and 4000 L-6 cells (a primary cell line derived from rat skeletal myoblasts). Serial drug dilutions ranged from 100 to 0.002 μg/mL. After 70 h of incubation, the plates were inspected under an inverted microscope to assure growth of the controls and sterile conditions. 10 μL of resazurin was then added to each well and the plates were incubated for another 2 h. […] Podophyllotoxin (Sigma P4405) was used as control (IC50 0.011 ± 0.005 μM).

Data set [2] relates to T. cruzi Tulahuen strain C2C4. As to the kind of experiment: Activity against T. cruzi in L-6 cells (beta-galactosidase/CPRG). It counts as cell-based, Trypanosoma cruzi. The conditions noted are these: Tulahuen C2C4 in L-6 cells, Table 2 values are means of two independent assays. The protocol: Activity against T. cruzi. Rat skeletal myoblasts (L-6 cells) were seeded in 96-well microtiter plates at 2000 cells/well in 100 μL RPMI 1640 medium with 10% FBS and 2 mM L-glutamine. After 24 h, the media in each well was removed and replaced with 100 μL of fresh media containing 5000 trypomastigote forms of T. cruzi Tulahuen strain C2C4 containing the β-galactosidase (lacZ) gene. After 48 h, the media was removed from the wells again, and this time, replaced by 100 μL fresh medium with or without 1 from 100 to 0.002 μg/mL. After 96 h of incubation, the plates were inspected under an inverted microscope to assess growth and sterility of the controls. Then, the substrate CPRG/Nonidet (50 μL) was added to all wells. A color reaction developed within 2–6 h and could be read photometrically at 540 nm.

Data set [3] deals with P. falciparum NF54 strain. As to the kind of experiment: In vitro activity against erythrocytic stages of P. falciparum (3H-hypoxanthine incorporation assay). It counts as cell-based. The conditions noted are these: Plasmodium falciparum, Table 2 values are means of two independent assays. Here is the method:
Activity against P. falciparum. In vitro activity against erythrocytic stages of P. falciparum was determined using a ^3H-hypoxanthine incorporation assay against the drug-sensitive NF54 strain [76]. Compounds were dissolved in DMSO at 10 mg/mL and further diluted in medium before being added to parasite cultures incubated in RPMI 1640 medium without hypoxanthine, supplemented with HEPES (5.94 g/L), NaHCO3 (2.1 g/L), neomycin (100 U/mL), Albumax^R (5 g/L) and washed human red cells A^+ at 2.5% haematocrit (0.3% parasitaemia). Serial drug dilutions ranged from 100 to 0.002 μg/mL. The 96-well plates were incubated in a humidified atmosphere at 37 °C; 4% CO2, 3% O2, 93% N2. After 48 h 50 μL of ^3H-hypoxanthine (=0.5 μCi) was added to each well of the plate. The plates were incubated for a further 24 h under the same conditions. The plates were then harvested with a Betaplate™ cell harvester (Wallac, Zurich, Switzerland) and the red blood cells were transferred onto a glass fiber filter then washed with distilled water. The dried filters were inserted into a plastic foil with 10 mL of scintillation fluid and counted in a Betaplate™ liquid scintillation counter (Wallac, Zurich, Switzerland). IC50 values were calculated from sigmoidal inhibition curves by linear regression using Microsoft Excel. Chloroquine diphosphate (Sigma C6628) was used as control (IC50 0.006 ± 0.002 μM).

Data set [4] can be described thus: Observed stability of the isolated compounds. It counts as physicochemical. An excerpt:
The shift values of the terminal heterocycle were in very good agreement with literature data from similar natural products, bearing a γ-hydroxy-γ-butenolide moiety. Analogous to compound 7, the Δ^8,10 double bond of 8 was defined as E (C-9: δC 16.2 and NOESY cross correlations depicted in Figure 4). Likewise, based on the same observed diagnostic NOE crosspeaks for the indene system (Figure S43B) and for biogenetic reasons, we propose that 8 is 11R*, 15R*, 18S*, 20R*, 21S* configured. […] Therefore, we integrated computational methods and aimed for quantum-mechanical predictions of ^1H and ^13C NMR chemical shifts of a 1S- and a 1R-configured version of 8.
All tests were performed with 1 as a pre-screening for the scaffold’s activity within their respective assays. Based on the results from the pre-screening, the biological evaluation of the structural congeners was planned. Unfortunately, an instability phenomenon affected the purity of the isolated compounds. Due to the limited amounts of the isolated compounds, repurification would not have yielded the required sample quantity for the assays. This reality precluded biological evaluation of the structural congeners 3–8.

Data set [5] concerns Trypanosoma brucei rhodesiense STIB900. The data set is described as follows: Activity against Trypanosoma brucei rhodesiense STIB900 (resazurin). As to conditions: Table 2 values are means of two independent assays.
Protocol: Activity against Trypanosoma brucei rhodesiense STIB900. […] Minimum Essential Medium (50 µL) supplemented with 25 mM HEPES, 1 g/L additional glucose, 1% MEM non-essential amino acids (100×), 0.2 mM 2-mercaptoethanol, 1 mM Na-pyruvate and 15% heat inactivated horse serum was added to each well of a 96-well microtiter plate. Serial drug dilutions ranging from 100 to 0.002 μg/mL were prepared. Then, 4 × 10^3 bloodstream forms of T. b. rhodesiense STIB 900 in 50 µL were added to each well and the plate was incubated at 37 °C under a 5% CO2 atmosphere for 70 h. 10 µL of a resazurin solution (resazurin, 12.5 mg in 100 mL double-distilled water) was then added to each well and incubation continued for a further 2–4 h [70]. The plates were read with a Spectramax Gemini XS microplate fluorometer (Molecular Devices Cooperation, Sunnyvale, CA, USA) using an excitation wavelength of 536 nm and an emission wavelength of 588 nm. Data were analyzed using Softmax Pro (Molecular Devices Cooperation, Sunnyvale, CA, USA), which calculated IC50 values by linear regression [71] and 4-parameter logistic regression from the sigmoidal dose inhibition curves.
In data set [6] the test system is L. donovani strain MHOM/ET/67/L82 axenic amastigotes. The data set is described as follows: Activity against L. donovani axenic amastigotes (resazurin). The format is cell-based, Leishmania donovani. The conditions noted are these: in vitro, Table 2 values are means of two independent assays. The protocol: Activity against L. donovani axenic amastigotes. Amastigotes of L. donovani strain MHOM/ET/67/L82 were grown in axenic culture at 37 °C in SM medium at pH 5.4 supplemented with 10% heat-inactivated fetal bovine serum under an atmosphere of 5% CO2 in air. 100 µL of culture medium with 10^5 amastigotes from axenic culture with or without a serial drug dilution were seeded in 96-well microtiter plates. Serial drug dilutions ranged from 100 to 0.002 μg/mL. After 70 h of incubation, the plates were inspected under an inverted microscope to assure growth of the controls and sterile conditions.
In general terms: The colour change of resazurin is a common sign of viable cells or microbes.

As usually defined, the IC50 is the concentration needed to halve the response being measured. Consider `COc1cc([C@@H]2c3cc4c(cc3[C@H](O)[C@H]3COC(=O)[C@H]23)OCO4)cc(OC)c1OC` [Podophyllotoxin, reference compound], for which the IC50 in data set [1] amounted to 11 ± 5 nM.
As to `O=C(Cn1ccnc1[N+](=O)[O-])NCc1ccccc1` [benznidazole, Benznidazole, reference compound], the IC50 in data set [2] (Trypanosoma cruzi, TULAHUEN, L6, in vitro) came out at 2310 ± 1150 nM; in data set [2] (in vitro) it was 3360 nM.
With `CCN(CC)CCCC(C)Nc1ccnc2cc(Cl)ccc12` (stereo not drawn) [chloroquine, Chloroquine diphosphate, reference compound], the IC50 in data set [3] came out at 6 nM.
As for `CC(=CC1C=C(C)C2CCC(C)C2C12OC(=O)C(C)=C2O)CCCC1=CC(=O)OC1O` (stereo not drawn) [compound 8, Ircinianin lactone C], the “Stability of isolated compound” value in data set [4] (rapid decomposition after the NMR measurements) is reported as “unstable”.
For the compound `Nc1nc(N)nc(Nc2ccc([As]3SCC(CO)S3)cc2)n1` (stereo not drawn) [melarsoprol, Melarsoprol, reference compound], the IC50 in data set [5] (Trypanosoma brucei, RHODESIENSE|STIB900, read-out: IC50 T. brucei rhodesiense, in vitro, STIB900 bloodstream forms) came to 13 ± 6 nM; in data set [5] (read-out: IC50 T. brucei rhodesiense, in vitro, STIB900 bloodstream forms), 20 nM.
As for `CCCCCCCCCCCCCCCCOP(=O)([O-])OCC[N+](C)(C)C` [miltefosine, Miltefosine], the IC50 in data set [6] (Leishmania donovani) was found to be 650 ± 270 nM; in data set [6], 486 nM.
Consider Ircinianin lactone A [compound 6], for which, in data set [4], the “Stability of isolated compound” value is given as “unstable”.
As for Ircinianin lactone B [compound 7], the “Stability of isolated compound” value in data set [4] is listed as “unstable”.
Take Oxoircinianin [compound 3]: in data set [4], the “Stability of isolated compound” value is listed as “unstable”.
